Laboratory results taken from PubChem BioAssay (NCI).
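The compound was tested at five concentrations on cells cultured in 96-well plates, with a 48-hour exposure period. The concentration for 50% growth inhibition is given as GI50. TGI denotes the concentration required for complete inhibition of growth.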

How the values were obtained:
Test in all cases: NCI tumour cell line growth inhibition, 48 h
RXF 393 renal = system: RXF 393 renal
EKVX NSCLC = system: EKVX NSCLC
LOX IMVI melanoma = system: LOX IMVI melanoma
TK-10 renal = system: TK-10 renal
HOP-92 NSCLC = system: HOP-92 NSCLC
NCI-H460 lung = system: NCI-H460 lung
NCI-H226 lung = system: NCI-H226 lung
NCI/ADR-RES ovarian = system: NCI/ADR-RES ovarian
A498 renal = system: A498 renal
SK-MEL-28 melanoma = system: SK-MEL-28 melanoma
CAKI-1 renal = system: CAKI-1 renal
UACC-62 melanoma = system: UACC-62 melanoma
SNB-75 CNS = system: SNB-75 CNS
SF-295 CNS = system: SF-295 CNS
HCT-15 colon = system: HCT-15 colon
SK-MEL-5 melanoma = system: SK-MEL-5 melanoma
COLO 205 colon = system: COLO 205 colon
SK-MEL-2 melanoma = system: SK-MEL-2 melanoma
MCF7 breast = system: MCF7 breast
IGROV1 ovarian = system: IGROV1 ovarian
UACC-257 melanoma = system: UACC-257 melanoma
MOLT-4 leukemia = system: MOLT-4 leukemia
ACHN renal = system: ACHN renal
OVCAR-5 ovarian = system: OVCAR-5 ovarian
SNB-19 CNS = system: SNB-19 CNS
U251 CNS = system: U251 CNS
HCC-2998 colon = system: HCC-2998 colon
A549 NSCLC = system: A549 NSCLC
DU-145 prostate = system: DU-145 prostate
MDA-MB-435 = system: MDA-MB-435

O=C(CNc1nc(-c2ccccc2)cs1)Nc1ccc(Cl)cc1 gave a TGI (RXF 393 renal) of 1.17 µM, a GI50 (EKVX NSCLC) of 0.53 µM and a TGI (EKVX NSCLC) of 1.2 µM. The GI50 (LOX IMVI melanoma) was 0.167 µM, the TGI (LOX IMVI melanoma) was 0.616 µM and the GI50 (TK-10 renal) was 1.07 µM. The TGI (TK-10 renal) was 2.52 µM, the GI50 (HOP-92 NSCLC) was 0.461 µM and the TGI (HOP-92 NSCLC) was 2.13 µM. It also gave a GI50 (NCI-H460 lung) of 0.936 µM, a TGI (NCI-H460 lung) of 3.12 µM and a GI50 (NCI-H226 lung) of 0.651 µM. The TGI (NCI-H226 lung) was 2.94 µM, the GI50 (NCI/ADR-RES ovarian) was 0.213 µM and the TGI (NCI/ADR-RES ovarian) was 0.533 µM. For the same compound, the GI50 (A498 renal) was 2.15 µM, the TGI (A498 renal) was 5.02 µM and the GI50 (SK-MEL-28 melanoma) was 1.08 µM. For the same compound, the TGI (SK-MEL-28 melanoma) was 2.43 µM, the GI50 (CAKI-1 renal) was 0.466 µM and the TGI (CAKI-1 renal) was 1.89 µM. For the same compound, the GI50 (UACC-62 melanoma) was 0.496 µM, the TGI (UACC-62 melanoma) was 1.64 µM and the GI50 (SNB-75 CNS) was 0.628 µM. For the same compound, the TGI (SNB-75 CNS) was 5.9 µM, the GI50 (SF-295 CNS) was 0.708 µM and the TGI (SF-295 CNS) was 2.15 µM. It also gave a GI50 (HCT-15 colon) of 0.315 µM, a TGI (HCT-15 colon) of 0.8 µM and a GI50 (SK-MEL-5 melanoma) of 0.44 µM. For the same compound, the TGI (SK-MEL-5 melanoma) was 0.851 µM, the GI50 (COLO 205 colon) was 1.58 µM and the TGI (COLO 205 colon) was 3.23 µM. The GI50 (SK-MEL-2 melanoma) was 0.646 µM, the TGI (SK-MEL-2 melanoma) was 2.07 µM and the GI50 (MCF7 breast) was 0.323 µM. For the same compound, the TGI (MCF7 breast) was 0.86 µM, the GI50 (IGROV1 ovarian) was 0.554 µM and the TGI (IGROV1 ovarian) was 1.75 µM. The GI50 (UACC-257 melanoma) was 1.06 µM, the TGI (UACC-257 melanoma) was 3.29 µM and the GI50 (MOLT-4 leukemia) was 0.364 µM. For the same compound, the GI50 (ACHN renal) was 0.385 µM, the TGI (ACHN renal) was 0.846 µM and the GI50 (OVCAR-5 ovarian) was 1.03 µM. For the same compound, the TGI (OVCAR-5 ovarian) was 2.41 µM, the GI50 (SNB-19 CNS) was 0.777 µM and the TGI (SNB-19 CNS) was 2.13 µM. For the same compound, the GI50 (U251 CNS) was 0.339 µM, the TGI (U251 CNS) was 0.813 µM and the GI50 (HCC-2998 colon) was 0.835 µM. It also gave a TGI (HCC-2998 colon) of 2.18 µM, a GI50 (A549 NSCLC) of 1.07 µM and a TGI (A549 NSCLC) of 2.48 µM. It also gave a GI50 (DU-145 prostate) of 1.54 µM, a TGI (DU-145 prostate) of 2.92 µM and a GI50 (MDA-MB-435) of 0.559 µM. It also gave a TGI (MDA-MB-435) of 2.1 µM.
